Measurements reported in patent US20060276502A1, “Pharmaceutical use of 1-azabicyclo[2.2.2]octanes and a method of testing compounds for the ability of activating inactive wt p53” (priority 2003, published 2006).

Assays:
M21 human melanoma cells = assay: Apoptosis by FITC-Annexin-V staining / FACS of M21 melanoma cells; format: cell-based
Protocol: With reference to FIG. 1A, the maternal human melanoma cells M21, expressing integrin αvβ3, and a subpopulation, M21L, lacking integrin αvβ3 were cultured in a three-dimensional collagen gel (3D-collagen). At indicated times, apoptosis was detected by FITC-Annexin-V staining.
Apoptosis was analyzed in M21 cells grown under 2D culture conditions or within 3D-collagen with or without PRIMA-1 treatment for 16, 24, 36 and 48 h. […] This also verifies the results using dn p53 and p53-siRNA (FIG. 3) in an independent manner.

wt p53 = target: T1, wt p53 (Homo sapiens, UniProt P04637); assay: p53 conformation by ELISA with Pab 1620, Pab 240 and DO 1 in melanoma cells in 3D-collagen; format: cell-based
T1 construct: endogenous in cells; host or cells: M21, M21L and AA human melanoma cells
Protocol: Data shown in FIG. 2D represents Pab 1620 and Pab 240 reactivity as percentage of D01 reactivity (total p53).
PRIMA-1 is a substance known from WO0224692 to be able to reactivate the apoptosis-inducing function of mutant p53 proteins. […] The p53 conformation was examined as described above. […] To this end, p53 conformation was also analyzed in AA human melanoma cells expressing αv β3 integrin and wt p53 before and after incubation within 3D collagen (FIG. 4B).

[1] = tested on: C8161 melanoma cells (truncated, unfunctional p53); assay: C8161 melanoma tumour growth s.c. in C57/BL nude mice; format: in vivo; conditions: 100 mg/kg for 6 d starting 6 d after inoculation
Protocol: (§1) Tumour volumes were monitored for melanoma growth, as described in the preceding paragraph. Tumour volume over time was determined by the formula: width^2×length×0,52. […] In the Figure, ♦ represents M21; □ M21L; ▴ Lp53His175-0; and ★ Lp53His175-8. M21Lp53His175-0 and M21Lp53His175-8 formed large tumours similar in size to M21 tumours. However, M21L cells lacking integrin αvβ3 typically grew only minimal or developed no tumours.
(§2) To test if restoration of an active wt p53 conformation by PRIMA-1 could also induce melanoma cell apoptosis in vivo and thereby block melanoma tumour growth, M21 and C8161 melanoma cells (1,5×10^6) were injected s.c. into the back of 6-week-old C57/BL nude mice. The mice were treated with or without PRIMA-1 (100 mg/kg) for 6 d starting 6 d after tumour innoculation.

Caspase 9 = assay: Western blot of Caspase 9 activation in M21 tumours grown in nude mice; format: in vivo; conditions: 24 h and 36 h after single injection
Source text: Caspase 9 is therefore a potential downstream effector of PRIMA-1- and p53-induced apoptosis in melanoma cells in vivo.

p53 = assay: Western blot of p53 acetylation and p53 target proteins in M21 tumours grown in nude mice after a single PRIMA-1 injection; format: in vivo; conditions: 24 h and 36 h after single injection
Source text: Thus, acetylation of p53-Lys382 is potentially involved in p53 activation by PRIMA-1, while Apaf-1 and PUMA are potential downstream mediators of PRIMA-1- and p53-induced melanoma cell apoptosis in vivo.

[2] = tested on: M21 melanoma cells (wt p53); assay: M21 melanoma tumour growth s.c. in C57/BL nude mice; format: in vivo; conditions: 100 mg/kg for 6 d starting 6 d after inoculation, versus PBS control
Protocol: as §1, §2

caspase-8 = assay: Western blot for cleavage of caspase-8, control Jurkat cells; format: cell-based; conditions: cycloheximide-treated Jurkate cells

With `O=C1C2CCN(CC2)C1(CO)CO` [PRIMA-1, 2,2-bis(hydroxymethyl)-1-azabicyclo[2.2.2]octan-3-one] the “apoptosis (Annexin V staining)” value (M21 human melanoma cells; 100 μM PRIMA-1, 16, 24, 36 and 48 h, 3D collagen versus 2D culture) was “promoted apoptosis in M21 cells (αvβ3+) within 3D collagen to a much higher degree than in 2D culture”, the “apoptosis (Annexin-V staining)” value (M21 human melanoma cells; 36 h in 3D collagen, 80 μM PRIMA-1) was “induces melanoma cell apoptosis” and the “p53 conformation (Pab 1620 / Pab 240 reactivity)” value (wt p53; AA human melanoma cells (αvβ3, wt p53), 100 μM PRIMA-1, 5 d in 3D collagen) was “enforced p53 into an active conformation”. The “p53 conformation (Pab 1620 / Pab 240 reactivity)” value (wt p53; M21 cells (αvβ3+), 100 μM PRIMA-1, 3D-collagen, 7 d) was “restore active p53 conformation from an unfolded inactive state”, the “melanoma growth (mean tumour volume)” value [1] was “no effect” and the “activation of Caspase 9” value (Caspase 9) was “activation of Caspase 9”. The Apaf-1 protein level (p53) was “induces”, the PUMA protein level (p53) was “induces” and the “acetylation of p53-Lys382” value (p53) was “induces”. The “melanoma growth (mean tumour volume)” value [2] was “significantly inhibited”.
For `C[C@@H]1C[C@@H]([C@H](O)CC2CC(=O)NC(=O)C2)C(=O)[C@@H](C)C1` [cycloheximide], the caspase-8 cleavage (caspase-8) was “displayed caspase-8 cleavage”.
In the case of Z-LEHD-FMK x TFA [reference compound], the “effect on PRIMA-1 induced apoptosis” value (M21 human melanoma cells; 36 h in 3D-collagen, with 80 μM PRIMA-1) is reported as “blocked”.
